Paper PMC9246774, “Construction and Functional Evaluation of a Three-Dimensional Blood–Brain Barrier Model Equipped With Human Induced Pluripotent Stem Cell-Derived Brain Microvascular Endothelial Cells” (Pharmaceutical Research, 2022)

How the values were obtained:
MCTs = test: Inhibition of H+-gradient-promoted [14C] L-lactate transport in the 3D-BBB system; assay type: cell-based, human; details: 20 nM AZD3965; one lane pH 6.0, opposite lane pH 7.4
Protocol: Permeability experiments were performed on day 10, at 48 h after seeding hiPS-BMECs on the plate. After removal of the medium in the capillary channels, the assay buffer (pH 7.4) was added to both sides of the capillary and brain channels and preincubated on the OrganoFlow® for 30 min. The assay buffer containing test drugs was added to the donor side to initiate the assay, and the plate was then incubated on the OrganoFlow® at 37°C for the designated times. Transporter inhibitors were added to both the donor and receiver sides at the start of preincubation. In all permeability experiments, the amount of lucifer yellow transported through the paracellular pathway to the receiver side was measured with a SpectraMax i3x (Molecular Devices, San Jose, CA) as a measure of cell-to-cell tightness. […] The apparent permeability coefficient (Papp) was calculated as follows: Papp=(dQ/dt)/D0×S
On day 10, remove the medium in the capillary lane of the 3D-BBB system. After removal, 100 µL of assay buffer (50 µL in each Well ➀, ②, ⑤ and ⑥) was added to the capillary and brain lane for washing. […] At 3.5 hr after the start of permeability experiment, the transport amount of lucifer yellow on the receiver side was measured to check for leakage, and all donor and receiver were collected at 4 hr.

[1] = Permeability experiments in the 3D-BBB system (hiPS-BMECs on OrganoPlate 3-lane); details: human
Protocol: (§1) The 3D-BBB system using the OrganoPlate® 3-lane plate was constructed with some modifications to the protocol published by MIMETAS. During the differentiation of hiPS-BMECs, to separate the capillary side from the brain side, extracellular matrix hydrogel composed of 4 mg/mL collagen I (Cultrex 3D Matrix Rat Collagen-I, 5 mg/mL, AMSbio), 100 mM HEPES, and 3.7 mg/mL NaHCO3 was dispensed into the middle lane. The plate was incubated at 37°C for 15 min to polymerize collagen I. After incubation, HBSS (+) without phenol red (Fujifilm Wako) was added to the gel channel to prevent the gel from drying out. […] The suspension was injected into capillary lanes precoated with fibronectin/collagen IV solution (PharmCo-Cell). After seeding the cells, the plate was incubated for 4 h at a tilt to allow the cells to adhere to the gel. After incubation, the medium was added to the capillary channels and the plate was placed on an OrganoFlow® (MIMETAS), switching between a + 7° and − 7° inclination every 8 min to create a bidirectional flow mimicking blood flow. On day 9, the medium in the capillary channels was replaced with fresh ESFM + 1% hPDS containing 10 μM MMP inhibitor.
(§2) Permeability experiments were performed on day 10, at 48 h after seeding hiPS-BMECs on the plate. […] The assay buffer containing test drugs was added to the donor side to initiate the assay, and the plate was then incubated on the OrganoFlow® at 37°C for the designated times. Transporter inhibitors were added to both the donor and receiver sides at the start of preincubation. In all permeability experiments, the amount of lucifer yellow transported through the paracellular pathway to the receiver side was measured with a SpectraMax i3x (Molecular Devices, San Jose, CA) as a measure of cell-to-cell tightness. The protocol for the permeability experiments, including the composition of the assay buffer, is described in detail in the Supplementary Material. The apparent permeability coefficient (Papp) was calculated as follows: Papp=(dQ/dt)/D0×S
(§3) where dQ/dt, D0, and S are the transport velocity of the test drugs, the initial concentration of test drugs on the donor side, and the surface area of the extracellular matrix hydrogel in the middle lane, respectively. The efflux ratio value was calculated from the Papp value in the capillary-to-brain (A-to-B) and brain-to-capillary (B-to-A) directions as follows: Effluxratio=Papp,B-to-A/Papp,A-to-B.
(§4) The test drugs were quantified using a high-performance liquid chromatography (HPLC)-tandem mass spectrometry system composed of a Nexera-XR (Shimazu, Kyoto, Japan) HPLC system connected to a Qtrap4500 (AB Sciex, Foster City, CA, USA) mass spectrometer with an electrospray ionization interface.
(§5) On day 10, remove the medium in the capillary lane of the 3D-BBB system. After removal, 100 µL of assay buffer (50 µL in each Well ➀, ②, ⑤ and ⑥) was added to the capillary and brain lane for washing. After 30 min for washing, 100 µL of a fresh assay buffer containing the drug was added to the donor side (A-to-B direction; 50 µL in each Well ➀ and ②, B-to-A direction; 50 µL in each Well ⑤ and ⑥). In addition, 100 µL of a fresh assay buffer was added to the receiver side (A-to-B direction; 50 µL in each Well ⑤ and ⑥, B-to-A direction; 50 µL in each Well ➀ and ②). Inhibitors were added on both sides of the donor and receiver to avoid a gradient in concentration. At the designed sampling time, 50 µL of assay buffer was collected from the receiver side (A-to-B direction; 25 µL in each Well ⑤ and ⑥, B-to-A direction; 25 µL in each Well ➀ and ②), and 50 µL of a fresh assay buffer was added.

[2] = Permeability in the hydrogel without hiPS-BMECs (OrganoPlate 3-lane); assay type: in vitro ADME; details: pH 7.4, upper limit of the system, data not shown
BCRP = test: Permeability experiments in the 3D-BBB system (hiPS-BMECs on OrganoPlate 3-lane); details: human, pH 7.4, with Ko143 1 µM (BCRP inhibitor), Efflux ratio (B-to-A/A-to-B), + 1 μM Ko143 (BCRP inhibitor)
Protocol: as §1, §2, §3, §4, §5

hiPS-BMECs [3] = test: as above
Protocol: as §1, §2, §3, §4, §5

[4] = test system: monkey in vitro BBB model; parameters: method as in PMID 34575559; details: cited from earlier work
human BBB = test system: human BBB; parameters: method as in PMID 24947467; details: prediction for human BBB; cited from earlier work
hiPS-BMECs [5] = details: cited from earlier work
[6] = pH 7.4, Efflux ratio (B-to-A/A-to-B), Control

Cc1[nH]nc(C(F)(F)F)c1Cc1sc2c(c1C(=O)N1C[C@](C)(O)CO1)c(=O)n(C)c(=O)n2C(C)C [AZD3965]
Reduction of [14C] L-lactate transport promoted by the H+-gradient (MCTs): approximately 60%

Cc1cc(=O)n(-c2ccccc2)n1C [Antipyrine]
Papp A→B at 4 h ([1]; pH 7.4): 33.4 ×10⁻⁶ cm/s | Papp B→A at 4 h ([1]; pH 7.4): 35.1 ×10⁻⁶ cm/s | efflux ratio at 4 h [1, 6]: 1.05 | Papp at 4 h [2]: 59.2 ×10⁻⁶ cm/s

Nc1nc(Cl)nc2c1ncn2[C@H]1C[C@H](O)[C@@H](CO)O1 [Cladribine]
Papp A→B at 4 h ([1]; pH 7.4): 2.69 ×10⁻⁶ cm/s | Papp B→A at 4 h ([1]; pH 7.4): 15.1 ×10⁻⁶ cm/s | efflux ratio at 4 h [1, 6]: 5.6 | efflux ratio at 4 h (BCRP): 1.45 | Efflux ratio (B-to-A/A-to-B) (hiPS-BMECs [3]; Control): 5.61

NCC1(CC(=O)O)CCCCC1 [Gabapentin]
Papp A→B at 4 h ([1]; pH 7.4): 16 ×10⁻⁶ cm/s | Papp B→A at 4 h ([1]; pH 7.4): 6.4 ×10⁻⁶ cm/s | efflux ratio at 4 h ([1]; pH 7.4): 0.401

C=C[C@H]1C[N@@]2CC[C@H]1C[C@@H]2[C@@H](O)c1ccnc2ccc(OC)cc12 [Quinidine]
Papp A→B at 4 h ([1]; pH 7.4): 21.6 ×10⁻⁶ cm/s | Papp B→A at 4 h ([1]; pH 7.4): 22.8 ×10⁻⁶ cm/s | efflux ratio at 4 h [1, 6]: 1.06 | Efflux ratio [4]: approximately 1.7 | Efflux ratio (human BBB): ~13.4

NC(N)=NCCC[C@H](N)C(=O)O [[^3H] L-Arginine, Arginine, L-[2,3,4-^3H]]
Efflux ratio (B-to-A/A-to-B) (hiPS-BMECs [3]; Control): 0.410 | Papp B-to-A (hiPS-BMECs [3]; Control, brain-to-capillary, pH 7.4): 5.77 × 10^–6 cm/s | Papp A-to-B (hiPS-BMECs [3]; Control, capillary-to-brain, pH 7.4): 14.1 × 10^–6 cm/s

[14CH3][14CH](O)[14C](=O)[O-].[Na+] [[^14C] L-Lactate, Lactic acid sodium salt, L-[^14C(U)]]
Efflux ratio (B-to-A/A-to-B) (hiPS-BMECs [3]; A: pH 6.0—B: pH 7.4): 0.257 | Papp A-to-B (hiPS-BMECs [3]; A: pH 6.0—B: pH 7.4): 34.1 × 10^–6 cm/s | Papp B-to-A (hiPS-BMECs [3]; A: pH 6.0—B: pH 7.4): 8.74 × 10^–6 cm/s | Papp A-to-B (hiPS-BMECs [3]; A: pH 6.0—B: pH 7.4, + 20 nM AZD3965): 12.0 × 10^–6 cm/s | Efflux ratio (B-to-A/A-to-B) (hiPS-BMECs [3]; A: pH 7.4—B: pH 6.0): 3.07 | Papp A-to-B (hiPS-BMECs [3]; A: pH 7.4—B: pH 6.0): 7.68 × 10^–6 cm/s | Papp B-to-A (hiPS-BMECs [3]; A: pH 7.4—B: pH 6.0): 23.6 × 10^–6 cm/s | Papp B-to-A (hiPS-BMECs [3]; A: pH 7.4—B: pH 6.0, + 20 nM AZD3965): 9.60 × 10^–6 cm/s | Efflux ratio (B-to-A/A-to-B) (hiPS-BMECs [3]; A: pH 7.4—B: pH 7.4): 0.944 | Papp A-to-B (hiPS-BMECs [3]; A: pH 7.4—B: pH 7.4): 19.1 × 10^–6 cm/s | Papp B-to-A (hiPS-BMECs [3]; A: pH 7.4—B: pH 7.4): 18.1 × 10^–6 cm/s

lucifer yellow
Block of leakage by hiPS-BMECs (hiPS-BMECs [3]): more than 99% | Papp in 2D culture of hiPS-BMECs (hiPS-BMECs [5]): 0.0845 × 10^–6 cm/s
